Results taken from patent publication US20210393645A1, “TREATMENT FOR PROGRESSIVE MULTIPLE SCLEROSIS” (UTI LIMITED PARTNERSHIP, priority 2016, published 2021).
Counter-ions that a name gives are not always drawn.

Columns and labels:
human neurons [1] = test: Iron (FeSO4) mediated neurotoxicity screening, MAP-2 positive neurons counted; type: cell-based
Summary of the method: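 Fetal human neurons (15-20 wk), plated with cytosine arabinoside, were pre-incubated 1 h with compounds (10 mM DMSO stocks) before FeSO4 at 25-50 μM final. Cells fixed a day later; MAP-2 immunostaining plus Hoechst nuclei imaged automatically, sites per well averaged; quadruplicates.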

C57BL/6 mice = test: MOG-EAE in C57BL/6 mice, clinical score; type: in vivo, mouse
human neurons [2] = test: Live cell imaging of propidium iodide positive neurons challenged with FeSO4; type: cell-based; settings: FeSO4 50 μM, pre-treatment 1 h
Procedure: Neurons were prepared as described above. Directly after the addition of FeSO4 to healthy neurons, the live cell-permeant Hoechst 33342 (1:2 diluted in AIM-V medium, nuclear blue; ThermoFisher Scientific, Grand Island, NY, USA) and the live cell-impermeable propinium iodide (PI, 1:20 diluted in AIM-V medium) were added in a volume of 20 μI (Sigma-Aldrich). In compromised cells, PI could now diffuse across the plasma membrane. Live cell imaging was performed using the automated ImageXpress® imaging system under controlled environmental conditions (37° C. and 5% CO2). Images were taken from 9 sites per well at baseline and then every 30 min for 12h. After export with MetaXpress®, videos were edited with ImageJ (NIH) in a uniform manner. Nuclei were pseudo colored in cyan, PI-positive cells in red.
Live cell imaging over 12 h supported the neuroprotective effects of drugs. We selected indapamide and desipramine for live imaging studies.

[3] = test system: Ifng, Tnfa, Il-17 and Ccl2 transcripts; test: RT-PCR of inflammatory transcripts in lumbar spinal cord of EAE mice; type: in vivo, mouse; settings: 25 mg/kg IP from day 0, sacrifice day 15
Procedure: Lumbar spinal cords were harvested, snap frozen in liquid nitrogen and stored in -80° C. Samples were homogenized in 1 ml Trizol followed by the addition of 200 μI chloroform. […] RNA was extracted using the RNeasy Mini Kit according to the manufacturer's instruction (Qiagen). RNA concentrations were measured using a Nanodrop (Thermo Fisher Scientific). cDNA preparation was performed using the RT2 First Strand kit (Qiagen) with 1μg of RNA according to the manufacturer's instructions. Real time PCR was performed using the QuantStudio 6 Flex (Applied Biosystems by Life Technologies) with FAST SYBR Green and primers for Gapdh (Qiagen) as housekeeping gene, lfn-γ (Qiagen, QT01038821), Tnfa (Qiagen, QT00104006), II-17 (SABiosciences, PPM03023A-200) and CcI2 (Qiagen, QT00167832). Relative expression was calculated using the ΔΔCT method with Gapdh as housekeeping gene. Data were normalized to gene expression in naïve mice.

Biozzi ABH mice = test: Chronic EAE in Biozzi ABH mice (spinal cord homogenate); type: in vivo, mouse; settings: treatment from onset of clinical signs
human neurons [4] = test: Mitochondrial damage to neurons induced by rotenone; type: cell-based; settings: rotenone 10 μM, drug 10 μM
Procedure: Human neurons were isolated from brain tissues of therapeutically aborted 15-20 week old fetuses, in accordance with ethics approval of the University of Calgary ethics committee, after written informed consent of the pregnant donors. Neurons were isolated as previously described (Vecil et al., 2000) brain specimens were washed in phosphate buffered saline (PBS) to remove blood, followed by removal of meninges. […] Thereafter, the digestion was stopped by addition of 4 ml fetal calf serum (FCS). The solution was filtered through a 132 μm filter and centrifuged (three times, 1,200 rpm, 10 min). Cells were cultured in feeding medium of minimal essential medium (MEM) supplemented with 10% fetal bovine serum (FBS), 1 μM sodium pyruvate, 10 μM glutamine, 1× non-essential amino acids, 0.1% dextrose and 1% penicillin/streptomycin (all culture supplements from Invitrogen, Burlington, Canada). […] For experiments, the neuron-enriched cultures were retrypsinized and cells were plated in poly-L-ornithine pre-coated 96-well plates at a density of 100,000 cells/well in 100 μl of the complete medium supplemented with cytosine arabinoside. […] All conditions were performed in quadruplicates. A day later cells were fixed using 4% paraformaldehyde (PFA) and stored in PBS in 4° C.
The iron stock solution was prepared using 27.8 mg iron(II) sulfate heptahydrate (FeSO4) (Sigma-Aldrich, Oakville, Canada), 10 μl of 17.8M sulfuric acid and 10 ml deionized distilled water. After filtering with a 0.2 μm filter, FeSO4 was added to cells in a final concentration of 25-50 μM in a volume of 50 μl medium to the cells. Rotenone was dissolved in dimethyl sulfoxide (DMSO) and used in a final concentration of 10 μM.

microglia = settings: shown previously; cited from earlier work
[5] = 25 mg/kg IP from onset of clinical signs (day 13)

CN(C)CCCN1c2ccccc2CCc2ccc(Cl)cc21 [CLOMIPRAMINE HYDROCHLORIDE]
viability at 10 µM (human neurons [1]; Homo sapiens, Neuron, drug 10 μM 1 h before FeSO4 25 or 50 μM, MAP-2 neurons after 24 h, read-out: Drug % control (mean): number of neurons normalized to untreated control): 107% | concentration from which neuroprotection against iron toxicity is significant (human neurons [1]; concentration response): 100 nM | Drug % control (mean): number of neurons normalized to untreated control (human neurons [1]; drug 10 μM 1 h before FeSO4 25 or 50 μM, MAP-2 neurons after 24 h, HYDROCHLORIDE): 107.30% | protection from FeSO4-mediated neurotoxicity (in words) (human neurons [1]; drug 10 μM, human neurons): strong protection | manifestations of clinical signs (C57BL/6 mice; 25 mg/kg IP from day 0 (day of MOG induction)): completely suppressed | delay of onset of clinical signs (C57BL/6 mice; 25 mg/kg IP from day 5 after induction): 2 days | clinical disability of first relapse, days 14-20 (C57BL/6 mice; [5]): attenuated the marked rise in clinical disability | second increase in clinical scores, days 42-50 (C57BL/6 mice; [5]): prevented | severity of the second relapse (C57BL/6 mice; 25 mg/kg IP from remission after first relapse (day 31)): did not affect the severity of the second relapse | number of PI-positive neurons in response to FeSO4 over 12 h (human neurons [2]): attenuated | elevation of transcripts encoding Ifng, Tnfa, Il-17 and Ccl2 in spinal cord [3]: abrogated | clinical severity in chronic EAE (Biozzi ABH mice): reduced clinical severity | neurotoxicity by rotenone (mitochondrial damage) (human neurons [4]): trended towards a protective activity | microglia inhibitory activity (microglia): did not have microglia inhibitory activity
